Experimental findings from US9862724B2, “Pyrazolo[1,5-a]pyrimidine-based compounds, compositions comprising them, and methods of their use” (LEXICON PHARMACEUTICALS, INC., priority 2013, dated 2018) are described below.

Experiment [1] deals with T1, AAK1 (full-length human protein) (Homo sapiens, UniProt Q2M2I8).
T1 construct: NP_055726.2
Description: P81 filter plate assay. It counts as biochemical. The conditions noted are these: 0.2 nM 2x AAK1, Mu2 substrate, 33P-ATP. The method, then: Compounds were serially diluted into a Labcyte LDV plate (Labcyte, cat# LP-0200) using a Mutiprobe (PerkinElmer) and Biomek FX (Beckman Coulter) so that the highest compound concentration was at 96 μM. Compounds were then pinged (75 nL per well) into a Greiner 384-well reaction plate (Greiner, #781076) using an ECHO 550 Liquid Handler (Labcyte). A total of 12 μl reaction buffer (IMAP buffer containing Tween and DTT, from Molecular Devices) was then added to each well of columns 1 and 13 for the negative controls and 12 μl of 2×AAK1 (0.2 nM full-length human protein, NCBI accession no. NP_055726.2) was added to the remaining wells. Enzyme was then pre-incubated with compound for 10 minutes at RT. Reactions were initiated upon Minitrak (PerkinElmer) addition of 12 μl substrate mix containing 2×Mu2 (0.2 μM, full length human protein), 2× cold ATP (2 μM), and 1.3 μCi of hot ^33P-ATP. Reactions proceeded for one hour at RT. Meanwhile, Millipore 384-well P81 filter plates (Millipore, catalog # MZPHN0W10) were placed on a plate washer (Zoom ZW, from Titertek) and pre-wet with 50 μl […] phosphoric acid. Kinase reactions were then stopped upon addition of 24 μl of 2% phosphoric acid to each well and the Minitrak was then used to transfer 40 μl from each well into the pre-wet Millipore 384-well P81 filter plates. Reaction mixtures were incubated for 10 minutes at room temperature in the P81 plates, followed by washing five times with 100 μl/well of 1% phosphoric acid using the Zoom filter washer. The bottom of each filter plate was sealed followed by addition of 20 μl Microscint 40 to each well, sealing the top of the plates with Flashplate cover, and then waiting one hour until reading on the TopCount (PerkinElmer).

Another experiment has as its target T2, AAK1 (Homo sapiens, UniProt Q2M2I8).
T2 construct: expressed in transfected cells; host or cells: HEK293F
Put plainly: HEK281 cell-based assay (phospho-mu2 Western blot in transfected HEK293F cells). The conditions noted are these: HEK293F cells transfected with human AAK1 and AP2M1, 3 hours, read-out: CBA IC50. On the procedure:
HEK293F cells were cultured in media containing DMEM (Gibco, cat. #11965), 10% FBS (SAFC Biosciences, cat. #12103C), 1×GPS (glutamine, penicillin and streptomycin). On day one, cells were plated on a 10 cm dish so that they are ˜80% confluent at time of transfection. Roughly 12 million cells were in a 10 cm dish at time of transfection. On day two, each dish was transfected with 48 ug DNA and 144 ul Lipofectamine 2000 (Invitrogen, cat.#11668-019). The DNA was comprised of a mixture (per 10 cm dish) containing 3 ug AAK1/HA/pIRES (full length human, NCBI accession no. NP_055726.2), 45 μg Flag/AP2MI/pcDNA (full length human), and 1.5 ml OPTI-MEM. The Lipofectamine 2000 is made up of a mixture (per 10 cm dish) containing 144 μl Lipofectamine 2000 and 1.5 ml OPTI-MEM. Each mixture was transferred to individual 15 ml tubes and incubated at room temperature for 5 minutes, and then the two mixes were combined and incubated at room temperature for 20 minutes. Growth media was then aspirated from each 10 cm plate and replaced with 10 ml of DMEM+10% FBS (no GPS). Finally, 3 ml DNA/Lipofectamine mix was added to each 10 cm dish and mix gently followed by incubate of plate overnight at 37° C. and 5% CO2.
On day three, compounds were diluted in 100% DMSO at 1000× final concentration, followed by 3-fold serial dilutions for a total of 5 concentrations tested. Four compounds were tested per 10 cm dish. One ul of each compound dilution was then pipetted into a deep-well, 96-well plate, followed by addition of 500 μl DMEM+0.5% FBS into each well for a 2× final concentration of each compound. Cells were resuspended in a 10 cm dish by simple pipetting (HEK293 cells come off the plate that easy at this point) and then transferred to a 50 ml conical tube and pelleted by centrifugation at 1000 rpm for 5 min. Cell pellets were then resuspended in 2.75 ml DMEM+0.5% FBS per 10 cm dish and 100 μl of cell suspension transferred into each well of 96-well TC plate. Finally, 100 μl of 2× compound diluted in DMEM+0.5% FBS was then added into wells containing cell suspension for a 1× final concentration. Plates were then incubated at 37° C. and 5% CO2 for 3 hours followed by transferring of cell suspensions from each well into 12-tube PCR strips. The PCR strips were spun in a tip rack at 1000 rpm for 5 minutes to pellet cells and media was then removed by pipetting without disturbing the cell pellet.
To prepare for Western Blot analysis, cell pellets were resuspend in 40 ul 1×LDS-PAGE sample buffer (Invitrogen, cat.# NP0008)+2× Halt phophatase and protease inhibitor cocktail (Thermo Scientific, cat.#1861284), followed by sonicating each with microtip sonicator set at 5 for 8-10 seconds. Five ul of 10× NuPage Sample Reducing Agent (with […]) was to each sample followed by heat denaturing at 70 C for 10 min on PCR machine. A total of 10 μl per sample was loaded into each lane of a 4-20% Tris-Glycine Criterion 26-well gel (Biorad, cat.#345-0034) for the phospho-mu2 blot and 10 μl per lane in a 4-12% Bis-Tris (+MES buffer) NuPAGE 26-well gel (Invitrogen, cat.# WG1403BX10) for the mu2 blot. For controls, 2 ng of phospho-mu2 or 20 ng mu2/Flag proteins were loaded in the last well of each gel. After SDS-PAGE, samples on each gel were transferred to PVDF membrane using an iBlot and membranes were blocked for one hour in TBST+5% milk, followed by wash 3× for 5-10 min with TBST. Criterion gels were probed with rabbit anti-phospho-mu2 (1:5000; a rabbit polyclonal antibody produced by New England Peptide and affinity purified at Lexicon) in TBST+5% BSA, whereas, NuPAGE gels were probed with mouse anti-Flag (1:500; Sigma, cat.# F1804) in TBST+5% milk, and these primary antibodies were incubated overnight at 4° C. on a rocker. […]

Where two headings read alike, the source gives them in different places.

T2 sequence (Q2M2I8 1-863 isoform Q2M2I8-2): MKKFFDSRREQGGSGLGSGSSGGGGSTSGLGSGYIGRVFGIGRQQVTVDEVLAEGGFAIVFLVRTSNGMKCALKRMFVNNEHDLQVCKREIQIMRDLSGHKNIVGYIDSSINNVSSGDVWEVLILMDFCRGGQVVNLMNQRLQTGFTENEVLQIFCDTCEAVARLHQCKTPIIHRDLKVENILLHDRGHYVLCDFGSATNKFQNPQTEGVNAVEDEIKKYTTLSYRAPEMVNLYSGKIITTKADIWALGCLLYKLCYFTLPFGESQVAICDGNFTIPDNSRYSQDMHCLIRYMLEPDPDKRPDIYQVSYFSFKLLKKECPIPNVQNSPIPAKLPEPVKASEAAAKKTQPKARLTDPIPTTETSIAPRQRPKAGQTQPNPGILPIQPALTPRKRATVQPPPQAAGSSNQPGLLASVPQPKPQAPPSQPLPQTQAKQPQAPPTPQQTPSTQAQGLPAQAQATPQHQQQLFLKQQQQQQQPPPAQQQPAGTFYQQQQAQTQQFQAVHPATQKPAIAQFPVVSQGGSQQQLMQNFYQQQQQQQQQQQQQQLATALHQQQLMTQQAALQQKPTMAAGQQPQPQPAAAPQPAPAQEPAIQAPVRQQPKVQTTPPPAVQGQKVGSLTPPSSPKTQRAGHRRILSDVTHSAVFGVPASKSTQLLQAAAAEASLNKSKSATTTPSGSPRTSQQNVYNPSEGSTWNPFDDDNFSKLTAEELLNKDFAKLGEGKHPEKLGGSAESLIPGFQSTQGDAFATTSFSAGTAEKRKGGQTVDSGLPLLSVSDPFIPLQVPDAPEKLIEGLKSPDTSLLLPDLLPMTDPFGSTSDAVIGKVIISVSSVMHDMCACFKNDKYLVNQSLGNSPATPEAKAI
T1 sequence (Q2M2I8 1-863 isoform Q2M2I8-2): as above

Regarding `COc1ncccc1-c1cnn2ccc(-c3ccn(CCOC(C)C)c(=O)c3)nc12` [1-(2-isopropoxyethyl)-4-(3-(2-methoxypyridin-3-yl)pyrazolo[1,5-a]pyrimidin-5-yl)pyridin-2(1H)-one], the IC50 (as a rule, the concentration that inhibits the measured activity by half) in experiment [1] (class symbols) was no more than 0.1 µM; at AAK1 (class symbols), no more than 0.01 µM.
In the case of `COc1ccc(F)cc1-c1cnn2ccc(-c3ccn(CC(C)C)c(=O)c3)nc12` [4-(3-(5-fluoro-2-methoxyphenyl)pyrazolo[1,5-a]pyrimidin-5-yl)-1-isobutylpyridin-2(1H)-one], the IC50 (in experiment [1] (class symbols); at AAK1 (class symbols)) was no more than 0.01 µM each time.
Turning to `COc1ccc(F)cc1-c1cnn2ccc(-c3ccn(CCC(F)(F)F)c(=O)c3)nc12` [4-(3-(5-fluoro-2-methoxyphenyl)pyrazolo[1,5-a]pyrimidin-5-yl)-1-(3,3,3-trifluoropropyl)pyridin-2(1H)-one], the IC50 in experiment [1] (class symbols) is no more than 0.1 µM; at AAK1 (class symbols), no more than 0.01 µM.
With `COc1ncccc1-c1cnn2ccc(C3CCN(C(=O)OC(C)C)CC3)nc12` [isopropyl 4-(3-(2-methoxypyridin-3-yl)pyrazolo[1,5-a]pyrimidin-5-yl)piperidine-1-carboxylate], the IC50 was greater than 0.3 µM in experiment [1] (numeric bounds) and no more than 0.01 µM on AAK1 (class symbols).
For the molecule `COc1ncc(F)cc1-c1cnn2ccc(-c3ccn(CCC(F)(F)F)c(=O)c3)nc12` [4-(3-(5-fluoro-2-methoxypyridin-3-yl)pyrazolo[1,5-a]pyrimidin-5-yl)-1-(3,3,3-trifluoropropyl)pyridin-2(1H)-one], the IC50 (in experiment [1] (class symbols); on AAK1 (class symbols)) was no more than 0.01 µM throughout.
Regarding `COc1ncccc1-c1cnn2ccc(-c3ccn(CCC(F)(F)F)c(=O)c3)nc12` [4-(3-(2-methoxypyridin-3-yl)pyrazolo[1,5-a]pyrimidin-5-yl)-1-(3,3,3-trifluoropropyl)pyridin-2(1H)-one], the IC50 (in experiment [1] (class symbols); at AAK1 (class symbols)) was no more than 0.01 µM throughout.
Consider `CC(C)Oc1cc(-c2ccn3ncc(CO)c3n2)ccn1` [(5-(2-isopropoxypyridin-4-yl)pyrazolo[1,5-a]pyrimidin-3-yl)methanol], for which the IC50 at AAK1 (numeric bounds) was greater than 0.3 µM.
On to `CC(C)OC(=O)c1ccc(-c2ccn3ncc(Br)c3n2)cc1` [isopropyl 4-(3-bromopyrazolo[1,5-a]pyrimidin-5-yl)benzoate], for which, at AAK1 (class symbols), the IC50 is no more than 0.1 µM.
Consider `CC(C)OC(=O)N(C)CCCCc1ccn2ncc(Br)c2n1` [isopropyl (4-(3-bromopyrazolo[1,5-a]pyrimidin-5-yl)butyl)(methyl)carbamate], for which the IC50 at AAK1 (numeric bounds) was greater than 0.3 µM.
Take `COc1ncccc1-c1cnn2ccc(-c3ccn(CCC(C)C)c(=O)c3)nc12` [1-isopentyl-4-(3-(2-methoxypyridin-3-yl)pyrazolo[1,5-a]pyrimidin-5-yl)pyridin-2(1H)-one]: the IC50 (in experiment [1] (class symbols); at AAK1 (class symbols)) was no more than 0.01 µM throughout.
On to `COc1ccc(F)cc1-c1cnn2ccc(-c3ccn(CCC(C)(C)C)c(=O)c3)nc12` [1-(3,3-Dimethylbutyl)-4-(3-(5-fluoro-2-methoxyphenyl)pyrazolo[1,5-a]pyrimidin-5-yl)pyridin-2(1H)-one], for which the IC50 (in experiment [1] (class symbols); on AAK1 (class symbols)) was no more than 0.01 µM throughout.
For the molecule `CC(C)CCn1ccc(-c2ccn3ncc(Br)c3n2)cc1=O` [4-(3-bromopyrazolo[1,5-a]pyrimidin-5-yl)-1-isopentylpyridin-2(1H)-one], the IC50 (in experiment [1] (class symbols); at AAK1 (class symbols)) was no more than 0.01 µM each time.
For `CC(C)(C)CCn1ccc(-c2ccn3ncc(Br)c3n2)cc1=O` [4-(3-bromopyrazolo[1,5-a]pyrimidin-5-yl)-1-(3,3-dimethylbutyl)pyridin-2(1H)-one], the IC50 at AAK1 (class symbols) is no more than 0.1 µM.
Consider `COc1ncccc1-c1cnn2ccc(-c3ccn(CCC(C)(C)C)c(=O)c3)nc12` [1-(3,3-Dimethylbutyl)-4-(3-(2-methoxypyridin-3-yl)pyrazolo[1,5-a]pyrimidin-5-yl)pyridin-2(1H)-one], for which the IC50 (in experiment [1] (class symbols); at AAK1 (class symbols)) was no more than 0.01 µM each time.
For `CC(C)CCn1ccc(-c2ccn3nccc3n2)cc1=O` [1-isopentyl-4-(pyrazolo[1,5-a]pyrimidin-5-yl)pyridin-2(1H)-one], at AAK1 (class symbols), the IC50 was no more than 0.1 µM.
For the molecule `C1=C(c2ccn3nccc3n2)CCNC1` [5-(1,2,3,6-tetrahydropyridin-4-yl)pyrazolo[1,5-a]pyrimidine], the IC50 on AAK1 (numeric bounds) is greater than 0.3 µM.
Regarding `CC(C)CCn1ccc(-c2ccn3ncc(C(F)(F)F)c3n2)cc1=O` [1-isopentyl-4-(3-(trifluoromethyl)pyrazolo[1,5-a]pyrimidin-5-yl)pyridin-2(1H)-one], the IC50 at AAK1 (class symbols) was no more than 0.1 µM.
The same measure, in the same setting: under `COc1ncccc1-c1cnn2ccc(CCCCN(C)C(=O)OC(C)C)nc12` [isopropyl (4-(3-(2-methoxypyridin-3-yl)pyrazolo[1,5-a]pyrimidin-5-yl)butyl)(methyl)carbamate] stands no more than 0.1 µM.
In the case of `COc1ncccc1-c1cnn2ccc(CCCN(C)C(=O)OC(C)C)nc12` [isopropyl (3-(3-(2-methoxypyridin-3-yl)pyrazolo[1,5-a]pyrimidin-5-yl)propyl)(methyl)carbamate], at AAK1 (class symbols), the IC50 is no more than 0.1 µM.
On to `COc1ncccc1-c1cnn2ccc(-c3ccc(C(=O)OC(C)C)cc3)nc12` [isopropyl 4-(3-(2-methoxypyridin-3-yl)pyrazolo[1,5-a]pyrimidin-5-yl)benzoate], for which the IC50 at AAK1 (class symbols) was no more than 0.01 µM.
Same read-out and setting: to `CC(C)CCn1ccc(-c2ccn3ncc(Cl)c3n2)c(Cl)c1=O` [3-chloro-4-(3-chloropyrazolo[1,5-a]pyrimidin-5-yl)-1-isopentylpyridin-2(1H)-one] belongs no more than 0.1 µM.
On the same count and under the same terms, to `CC(C)OC(=O)c1ccc(-c2ccn3ncc(I)c3n2)cc1` [isopropyl 4-(3-iodopyrazolo[1,5-a]pyrimidin-5-yl)benzoate] belongs no more than 0.1 µM.
The same measure, in the same setting: to `CC(C)(C)OC(=O)N1CC=C(c2ccn3nccc3n2)CC1` [tert-butyl 4-(pyrazolo[1,5-a]pyrimidin-5-yl)-5,6-dihydropyridine-1(2H)-carboxylate] belongs no more than 0.1 µM; to `CC(C)OC(=O)c1ccc(-c2ccn3nccc3n2)cc1` [isopropyl 4-(pyrazolo[1,5-a]pyrimidin-5-yl)benzoate], no more than 1 µM.
